# US11420947B2, “(S)-n-hydroxy-2-(2-(4-methoxyphenyl)butanamido)thiazole-5-carboxamide and pharmaceutically acceptable salts thereof” (TRANSLATIONAL DRUG DEVELOPMENT, LLC, priority 2018, dated 2022)
# pIC50: −log10 of the molar value.
# What was measured:
# Experiment in all cases: CellTiter-Glo cell viability assay
# Assay type in all cases: cell-based
# A204 = conditions: for pIC50: Homo sapiens, A204, RHABDOMYOSARCOMA, Muscle, 72 hours
# Summary of the method: (§1)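 Luminescent ATP quantitation served as the viability measure after a 72-hour treatment begun one day post-seeding. Growth was normalised to vehicle to derive IC50.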
# A498 = conditions: for pIC50: Homo sapiens, A498, RENAL, RCC-VHL mut, 72 hours
# Summary of the method: as §1
# A549 = conditions: for pIC50: Homo sapiens, A549, LUNG, NSCLC, 72 hours
# Summary of the method: as §1
# BT-20 = conditions: for pIC50: Homo sapiens, BT-20, BREAST, Carcinoma, 72 hours
# Summary of the method: as §1
# BT474 = conditions: for pIC50: Homo sapiens, BT-474, BT474, BREAST, Ductal Carcinoma, 72 hours
# Summary of the method: as §1
# Cal-27 = conditions: for pIC50: Homo sapiens, Cal-27, H&N SQUAMOUS CELL, Tongue, 72 hours
# Summary of the method: as §1
# G401 = conditions: for pIC50: Homo sapiens, G-401, G401, RENAL, Rhabdoid Tumor, 72 hours
# Summary of the method: as §1
# H1975 = conditions: for pIC50: Homo sapiens, NCI-H1975, H1975, LUNG, NSCLC, 72 hours
# Summary of the method: as §1
# H660 = conditions: for pIC50: NCI-H660, H660, PROSTATE, LN Met, 72 hours
# Summary of the method: as §1
# HCC70 = conditions: for pIC50: Homo sapiens, HCC70, BREAST, TNBC, 72 hours
# Summary of the method: as §1
# HT-29 = conditions: for pIC50: Homo sapiens, HT-29, COLON, CRC, 72 hours
# Summary of the method: as §1
# HepG2 = conditions: for pIC50: Homo sapiens, HepG2, LIVER, HCC, 72 hours
# Summary of the method: as §1
# Huh-7-luc = conditions: for pIC50: Huh-7-luc, LIVER, HCC, 72 hours
# Summary of the method: as §1
# KMS-34 = conditions: for pIC50: KMS-34, HEMATOPIETIC, MM, 72 hours
# Summary of the method: as §1
# L363 = conditions: for pIC50: Homo sapiens, L-363, L363, HEMATOPIETIC, MM, 72 hours
# Summary of the method: as §1
# MFE296 = conditions: for pIC50: Homo sapiens, MFE-296, MFE296, ENDOMETRIAL, Endometrial, 72 hours
# Summary of the method: as §1
# MOLP-8 = conditions: for pIC50: Homo sapiens, MOLP-8, HEMATOPIETIC, MM, 72 hours
# Summary of the method: as §1
# MV411 = conditions: for pIC50: Homo sapiens, MV4-11, MV411, HEMATOPIETIC, AML, 72 hours
# Summary of the method: as §1
# Nalm-6 = conditions: for pIC50: Homo sapiens, Nalm-6, HEMATOPIETIC, ALL, 72 hours
# Summary of the method: as §1
# Panc-1 = conditions: for pIC50: Homo sapiens, Panc-1, PANCREAS, Pancreatic, 72 hours
# Summary of the method: as §1
# SK-Hep-1 = conditions: for pIC50: Homo sapiens, SK-HEP1, SK-Hep-1, LIVER, HCC, 72 hours
# Summary of the method: as §1
# SUM149PT = conditions: for pIC50: Homo sapiens, SUM149PT, BREAST, IBC, 72 hours
# Summary of the method: as §1
# THP-1 = conditions: for pIC50: Homo sapiens, THP-1, HEMATOPIETIC, AML, 72 hours
# Summary of the method: as §1
# Y79 = conditions: for pIC50: Homo sapiens, Y79, RETINOBLASTOMA, Retina, 72 hours
# Summary of the method: as §1
# YAPC = conditions: for pIC50: Homo sapiens, YAPC, PANCREAS, Pancreatic, 72 hours
# Summary of the method: as §1
smiles,measurement,setting,value
"CCC(C(=O)Nc1ncc(C(=O)NO)s1)c1ccc(OC)cc1 (racemic) [#1, N-hydroxy-2-(2-(4-methoxyphenyl)butanamido)thiazole-5-carboxamide]",pIC50,A204,7.48
same,pIC50,A498,7.20
same,pIC50,A549,7.12
same,pIC50,BT-20,6.63
same,pIC50,BT474,6.00
same,pIC50,Cal-27,6.67
same,pIC50,G401,7.04
same,pIC50,H1975,6.94
same,pIC50,H660,6.80
same,pIC50,HCC70,7.00
same,pIC50,HT-29,6.87
same,pIC50,HepG2,6.67
same,pIC50,Huh-7-luc,6.73
same,pIC50,KMS-34,7.82
same,pIC50,L363,7.36
same,pIC50,MFE296,7.28
same,pIC50,MOLP-8,7.89
same,pIC50,MV411,8.15
same,pIC50,Nalm-6,7.59
same,pIC50,Panc-1,6.20
same,pIC50,SK-Hep-1,6.43
same,pIC50,SUM149PT,6.72
same,pIC50,THP-1,7.19
same,pIC50,Y79,6.44
same,pIC50,YAPC,6.36
"CC[C@H](C(=O)Nc1ncc(C(=O)NO)s1)c1ccc(OC)cc1 [#1a, (S)—N-hydroxy-2-(2-(4-methoxyphenyl)butanamido)thiazole-5-carboxamide]",pIC50,A204,7.27
same,#1/#1a,"A204; ratio of IC50, A204",0.61
same,#1b/#1a,"A204; ratio of IC50, A204",3.15
same,pIC50,A498,7.33
same,#1/#1a,"A498; ratio of IC50, A498",1.34
same,#1b/#1a,"A498; ratio of IC50, A498",7.49
same,pIC50,A549,7.28
same,#1/#1a,"A549; ratio of IC50, A549",1.46
same,#1b/#1a,"A549; ratio of IC50, A549",7.65
same,pIC50,BT-20,7.03
same,#1/#1a,"BT-20; ratio of IC50, BT-20",2.54
same,#1b/#1a,"BT-20; ratio of IC50, BT-20",8.16
same,pIC50,BT474,6.84
same,#1/#1a,"BT474; ratio of IC50, BT474",6.9
same,#1b/#1a,"BT474; ratio of IC50, BT474",20.83
same,pIC50,Cal-27,7.35
same,#1/#1a,"Cal-27; ratio of IC50, Cal-27",4.78
same,#1b/#1a,"Cal-27; ratio of IC50, Cal-27",10.33
same,pIC50,G401,7.30
same,#1/#1a,"G401; ratio of IC50, G401",1.82
same,#1b/#1a,"G401; ratio of IC50, G401",8.14
same,pIC50,H1975,7.40
same,#1/#1a,"H1975; ratio of IC50, H1975",2.85
same,#1b/#1a,"H1975; ratio of IC50, H1975",9.95
same,pIC50,H660,7.55
same,#1/#1a,"H660; ratio of IC50, H660",5.64
same,#1b/#1a,"H660; ratio of IC50, H660",15.11
same,pIC50,HCC70,7.28
same,#1/#1a,"HCC70; ratio of IC50, HCC70",1.92
same,#1b/#1a,"HCC70; ratio of IC50, HCC70",6.56
same,pIC50,HT-29,7.37
same,#1/#1a,"HT-29; ratio of IC50, HT-29",3.16
same,#1b/#1a,"HT-29; ratio of IC50, HT-29",9.53
same,pIC50,HepG2,7.12
same,#1/#1a,"HepG2; ratio of IC50, HepG2",2.83
same,#1b/#1a,"HepG2; ratio of IC50, HepG2",8.3
same,pIC50,Huh-7-luc,7.17
same,#1/#1a,"Huh-7-luc; ratio of IC50, Huh-7-luc",2.72
same,#1b/#1a,"Huh-7-luc; ratio of IC50, Huh-7-luc",7.25
same,pIC50,KMS-34,7.89
same,#1/#1a,"KMS-34; ratio of IC50, KMS-34",1.15
same,#1b/#1a,"KMS-34; ratio of IC50, KMS-34",5.15
same,pIC50,L363,7.68
same,#1/#1a,"L363; ratio of IC50, L363",2.1
same,#1b/#1a,"L363; ratio of IC50, L363",8.1
same,pIC50,MFE296,7.46
same,#1/#1a,"MFE296; ratio of IC50, MFE296",1.49
same,#1b/#1a,"MFE296; ratio of IC50, MFE296",5.83
same,pIC50,MOLP-8,7.89
same,#1/#1a,"MOLP-8; ratio of IC50, MOLP-8",1
same,#1b/#1a,"MOLP-8; ratio of IC50, MOLP-8",2.46
same,pIC50,MV411,8.22
same,#1/#1a,"MV411; ratio of IC50, MV411",1.17
same,#1b/#1a,"MV411; ratio of IC50, MV411",3.83
same,pIC50,Nalm-6,7.96
same,#1/#1a,"Nalm-6; ratio of IC50, Nalm-6",2.36
same,#1b/#1a,"Nalm-6; ratio of IC50, Nalm-6",8.27
same,pIC50,Panc-1,6.52
same,#1/#1a,"Panc-1; ratio of IC50, Panc-1",2.09
same,#1b/#1a,"Panc-1; ratio of IC50, Panc-1",8.85
same,pIC50,SK-Hep-1,6.83
same,#1/#1a,"SK-Hep-1; ratio of IC50, SK-Hep-1",2.51
same,#1b/#1a,"SK-Hep-1; ratio of IC50, SK-Hep-1",6.71
same,pIC50,SUM149PT,7.13
same,#1/#1a,"SUM149PT; ratio of IC50, SUM149PT",2.58
same,#1b/#1a,"SUM149PT; ratio of IC50, SUM149PT",8.27
same,pIC50,THP-1,7.49
same,#1/#1a,"THP-1; ratio of IC50, THP-1",2.03
same,#1b/#1a,"THP-1; ratio of IC50, THP-1",6.13
same,pIC50,Y79,7.06
same,#1/#1a,"Y79; ratio of IC50, Y79",4.17
same,#1b/#1a,"Y79; ratio of IC50, Y79",7.25
same,pIC50,YAPC,6.67
same,#1/#1a,"YAPC; ratio of IC50, YAPC",2.03
same,#1b/#1a,"YAPC; ratio of IC50, YAPC",9.13
"CC[C@@H](C(=O)Nc1ncc(C(=O)NO)s1)c1ccc(OC)cc1 [#1b, (R)—N-hydroxy-2-(2-(4-methoxyphenyl)butanamido)thiazole-5-carboxamide]",pIC50,A204,6.77
same,pIC50,A498,6.45
same,pIC50,A549,6.40
same,pIC50,BT-20,6.12
same,pIC50,BT474,5.52
same,pIC50,Cal-27,6.33
same,pIC50,G401,6.39
same,pIC50,H1975,6.40
same,pIC50,H660,6.37
same,pIC50,HCC70,6.47
same,pIC50,HT-29,6.39
same,pIC50,HepG2,6.20
same,pIC50,Huh-7-luc,6.31
same,pIC50,KMS-34,7.17
same,pIC50,L363,6.77
same,pIC50,MFE296,6.69
same,pIC50,MOLP-8,7.49
same,pIC50,MV411,7.64
same,pIC50,Nalm-6,7.04
same,pIC50,Panc-1,5.57
same,pIC50,SK-Hep-1,6.00
same,pIC50,SUM149PT,6.21
same,pIC50,THP-1,6.71
same,pIC50,Y79,6.20
same,pIC50,YAPC,5.71
